Reference: a melting point compilation (Tetko et al.; mined from patent text by program, amines drawn as free bases though some values may be those of a salt)

Row | melting point | Structure (SMILES)
1 | 203 to 207 °C | CC(CCC(=O)N(Cc1ccccc1)Cc1ccccc1)(c1ccc(O)cc1)c1ccc(O)cc1
2 | 240 to 242 °C | N#Cc1cnc2cc(/C=C/c3ccncc3)ccc2c1Nc1ccc(Cl)cc1Cl
3 | 157 to 159 °C | CCOC(=O)c1cc(=O)c(O)c(-c2ccc(Cl)cc2)o1
4 | 166 to 168 °C | Clc1ccc(-c2nnnn2Cc2cccnc2)cc1Cl
5 | 192 °C | COc1ccc(-c2nc(Sc3ccc(C)cc3)n(C3CCCCO3)c2-c2ccc(OC)cc2)cc1 (stereo not drawn)
6 | 166 to 167 °C | COc1cccc(-c2nc(-c3ccccc3)c3ncc(-c4cccc5ccccc45)cc3n2)c1
7 | 102 to 104 °C | CCC(CC)C(c1ccnn1-c1ccccc1)N(C)S(=O)(=O)c1ccc(Cl)c(Cl)c1 (stereo not drawn)
8 | 148 to 149 °C | O=C(CCC(=O)N1CCC(c2ccc(Cl)cc2)CC1)c1ccc2c(c1)CCNCC2
9 | 149 to 150 °C | COCCCNS(=O)(=O)NC(=O)OCc1ccc(OCCOC)cc1Oc1ncc(C(F)(F)F)cc1Cl
10 | 191 to 192 °C | CCCCc1ncc(/C=C(/C=C/C(=O)O)Cc2cccs2)n1Cc1ccccc1Cl
11 | 170 to 171 °C | COC(=O)c1ccc(-c2nc(COc3ccc(CO)cc3OC)c(C)o2)cc1
12 | 218 to 220 °C | COCc1nc2c(OC)ccc(C(=O)Cc3ccncc3)c2[nH]1
13 | 100 to 101 °C | Cc1oc(-c2ccccc2)nc1COc1ccc(Cn2cc(CO)cn2)cc1
14 | 143 to 144 °C | CN1CCN(c2ncnc3oc(-c4ccccc4)c(-c4ccc(F)cc4)c23)CC1
15 | 138 to 144 °C | O=C(CSc1ccncc1)Nc1cccc(-c2ccnc3c(C(=O)c4cccs4)cnn23)c1
16 | 122 to 123 °C | S=C(Cc1ccccc1)n1c(-c2cscn2)nc2ccccc21
17 | 167 to 169 °C | O=c1[nH]c2c(Cl)cccc2c(=O)n1CCCN1CC2CCC(C1)N2c1ccc(Cl)cc1
18 | 150 to 158 °C | CCCCCCCCCCCCCCOc1ccc(NC(=O)Nc2cccc(CO)c2)cc1
19 | 199 °C | N#CCOc1ccc(CN2C(=O)c3cccc(NC(=O)c4ccc(Cl)s4)c3C2=O)cc1
20 | 170 to 172 °C | OCCc1nccn1Cc1coc(-c2ccc(OCc3coc(/C=C/c4ccc(Cl)cc4F)n3)cc2)n1
21 | 228 °C | COc1ccccc1NC(=O)Nc1nc(Nc2ccccc2C(=O)O)nc(Nc2ccccc2-c2ccccc2)n1
22 | 135 to 137 °C | CC(=O)Oc1ccc(C2COc3c(ccc(OC(C)=O)c3C)C2O)cc1 (stereo not drawn)
23 | 223 to 225 °C | Cc1c(/C=C/C(=O)c2nn(C)c3ccccc23)ncn1C(c1ccccc1)(c1ccccc1)c1ccccc1
24 | 210 to 214 °C | CCn1c(=O)c(-c2c(Cl)cccc2Br)cc2cnc(Nc3ccccc3)nc21

Row | melting point | Structure (SMILES)
25 | 354 to 356 °C | COc1ccc(-n2nc(O)c3[nH]c4cc(Cl)ccc4c(=O)c3c2=O)c(C)c1
26 | 68 to 69 °C | COc1cc(COc2ccccc2C=O)cc(OC)c1
27 | 147 to 148 °C | COCc1c(C(=O)c2ccccc2)ncc2[nH]c3cccc(Cc4ccccc4Cl)c3c12
28 | 150 to 153 °C | O=C(CNc1ccccc1F)Nc1ccc([N+](=O)[O-])cc1
29 | 237 to 239 °C | CCOC(=O)c1c(Cn2cnnc2)nc2cc3c(cc2c1-c1ccc(OC)c(OC)c1)OCCO3
30 | 83 to 84 °C | CCOC(=O)N(Cc1ccc(F)cc1)c1ccc(C(=O)OC)cc1
31 | 198 to 200 °C | O=c1c2ccccc2[nH]n1Cc1cccc2ccccc12
32 | 192 to 193 °C | O=C1Nc2cccnc2N(C(=O)NCCN2CCC(CCCN3CCCCC3)CC2)c2ccccc21
33 | 98 to 100 °C | O=C(O)C(Cc1ccccc1)Oc1c(Br)cc(-c2c(Br)ccc3sc4ccccc4c23)cc1Br (stereo not drawn)
34 | 144 to 145 °C | CCCN1C(=O)C2(c3ccccc3)CC(c3ccc(N)cc3)(C2)C1=O
35 | 92 to 94 °C | COC(=O)c1nc(-c2ccccc2)ccc1Oc1nc(OC)cc(OC)n1
36 | 196 °C | Cc1cc2c(cc1-c1ccc(F)cc1)NC(=O)CC(c1cccc(-n3ccnc3)c1)=N2
37 | 89 to 91 °C | CCCCCCCN(CCCCCCCCSc1nc(-c2ccccc2)c(-c2ccccc2)[nH]1)C(=O)Nc1ccc(F)cc1F
38 | 159 to 161 °C | O=C(c1ccccc1)c1oc2ccccc2c1-c1ccc(-c2ccc(OC(Cc3ccccc3)C(=O)O)cc2)cc1 (stereo not drawn)
39 | 69 to 71 °C | O=C(c1ccc(Cl)cc1)C1(Oc2ccc(Cl)cc2)CC1
40 | 224 to 227 °C | O=C(Nc1ccc2[nH]c(=O)oc2c1)C(=O)N1CCC(Cc2ccc(F)cc2)CC1
41 | 78 to 80 °C | CCCCCOC(=O)Cc1nc(-c2ccc(F)cc2)oc1-c1ccsc1
42 | 246 to 248 °C | Nc1ccc(Cn2c(=O)c3c(-c4noc(C5CC5)n4)ncn3c3ccccc32)cc1
43 | 203 to 205 °C | COc1cccc(-n2c(-c3cc(-c4ccc(S(C)(=O)=O)cc4)c(N4CCOCC4)s3)nc3ccccc3c2=O)c1
44 | 124 to 126 °C | Clc1ccc(-c2cccs2)cn1
45 | 107 to 114 °C | O=C(CCCCN1CCOCC1)NNC(=O)N1Cc2ccccc2Oc2ccc(Cl)cc21
46 | 113 to 114 °C | COC(=O)N(O)Cc1c(C)n(C(=O)c2ccc(Cl)cc2)c2ccc(OC)cc12
47 | 180 °C | CCc1cccc(C)c1CNc1cc(CO)cn2nc(C)nc12

Second part, the molecule before the results:

Row | Structure (SMILES) | melting point
48 | C[C@]1(COc2ccc(N3CCN(c4ccc(OC(F)(F)F)cc4)CC3)cc2)Cn2cc([N+](=O)[O-])nc2O1 | 262 to 265 °C
49 | OC1CSC(Sc2ccccc2)C(O)C1O (stereo not drawn) | 150 to 151 °C
50 | Cc1nn(C)c(F)c1C(=O)F | 85 to 87 °C
51 | Cc1cc(Cl)cc(Cl)c1N1CCn2c1nc1c(Cl)ccc(C(O)(C3CC3)C3CC3)c12 | 193 to 196 °C
52 | CCCCN1CC(=O)NC1=O | 90 to 92 °C
53 | CC1COc2c(N3Cc4cccc(F)c4C3)c(F)cc3c(=O)c(C(=O)O)cn1c23 (stereo not drawn) | > 300 °C
54 | O=C(Nc1ccc(F)cc1)C1=C(C(=O)Nc2cc(OC3CCCC3)c(Cl)cc2F)CCCC1 | 209 to 210 °C
55 | CCOC(=O)N1CCC(O)(CN)CC1 | 82 °C
56 | C/C(=N\OC(=O)[C@@H](NC(=O)OC(C)(C)C)C(C)C)[C@H]1CC[C@H]2[C@@H]3CCC4=CC(=O)CC[C@]4(C)[C@H]3CC[C@]12C | 82 to 84 °C
57 | CCOC(=O)c1cc(OC)c(OCc2nc(C)c(C)nc2C)c(OC)c1 | 122 to 123 °C
58 | Cc1nnc2n1-c1ccc(Cl)cc1C(N1CC=CCC1)=NC2 | 192 to 194 °C
59 | CCn1c(=O)nc(C(C)C)c2cc3c(cc21)OCO3 | 180 to 185 °C
60 | O=C(CCl)Nc1c([N+](=O)[O-])cnn1-c1c(Cl)cc(C(F)(F)F)cc1Cl | 130 to 133 °C
61 | N#Cc1ncccc1C(=O)OCC(Cl)(Cl)Cl | 103 °C
62 | FC(F)(F)c1ccc(-c2nc(Oc3csc(C(F)(F)F)c3)cc(Oc3csc(C(F)(F)F)c3)n2)cc1 | 93 to 95 °C
63 | COc1c(O)c(C)c2c(c1OC)OC(C)(CN1CCC(c3ccccc3)CC1)C2 (stereo not drawn) | 112 to 113 °C
64 | COc1ccc(C=O)cc1OC1CC=CC1 | 60 to 62 °C
65 | CC(C)CN1CCCC1CNC(=O)c1cc(S(N)(=O)=O)cc2c1OC(C)C2 (stereo not drawn) | 182 to 184 °C
66 | C1COC(NC(C2CC2)C2CC2)=N1 | 105 to 106 °C
67 | COc1ccc(CN2Cc3cc(OC)c(O)cc3C(OC)C2)cc1 (stereo not drawn) | 84 to 85 °C
68 | COC(OC)C(CC(=O)O)C(C)(C)S(=O)(=O)c1ccc(C)cc1 (stereo not drawn) | 144 °C
69 | COc1cc(C)nc(Nc2ccc(Cl)cc2)n1 | 101 to 103 °C
70 | CC(C)(C)c1cc(I)c2oncc2c1 | 106 to 109 °C
71 | Nc1ccc(N)c(I)c1 | 95 to 99 °C
72 | O=C(O)c1cc(=O)c2cc(C(F)(F)F)ccc2[nH]1 | 287 to 289 °C
73 | CCOC(=O)C1=CCC2(CC1S(=O)(=O)Nc1ccc(F)cc1Cl)OCCO2 (stereo not drawn) | 120 to 122 °C

Row | Structure (SMILES) | melting point
74 | Cc1noc(-c2cc3c4ccccc4n(C)c3s2)n1 | 200 to 201 °C
75 | CC(C)(C)OC(=O)n1cccc1-c1ccc2c(c1)C1(CCCC1)C(=O)N2 | 179 to 180 °C
76 | CSC(=O)C(=O)c1ccnc(NC=O)c1 | 165 to 167 °C
77 | Cc1nc2c(s1)C(=O)C(=CN1CCOCC1)CC2 | 186 to 187 °C
78 | COC1=CCC(Br)(OC)C=C1C(=O)C(Br)CCC1CCCCC1 (stereo not drawn) | 96 to 104 °C
79 | O=S(=O)(CCCl)CCCS(=O)(=O)CCCl | 142 to 146 °C
80 | COC(C(=O)O)c1ccc2c(c1)C(C)(C)CCC2(C)C (racemic) | 135 to 136 °C
81 | CCOC(=O)CC1CCCc2cc(C#N)ccc21 (stereo not drawn) | 45 to 47 °C
82 | CC(OC(=O)Nc1ccc(-c2ncn(-c3ccc(OC(F)(F)F)cc3)n2)cc1)C(F)(F)C(F)(F)F (stereo not drawn) | 171 to 173 °C
83 | CCCCC1(C2CCCC2)Cc2cc(OC)c(Cl)c(Cl)c2C1=O (stereo not drawn) | 122 to 123 °C
84 | O=C(O)c1cn(CCCO)c(=O)c2cc(Cl)ccc12 | 193 °C
85 | CCOC(=O)c1nc(SC)n2c1c(=O)n(C)c1cc(C(F)(F)F)ccc12 | 202 to 204 °C
86 | CC(C)=CCN(CCC12CC3CC(CC(C3)C1)C2)C(=O)NCCCc1ccncc1 | 93 to 96 °C
87 | CN1CCC2c3[nH]c4ccccc4c3CCN2C1 (stereo not drawn) | 168 °C
88 | CCCCNC(=O)NC1CCNCC1 | 132 to 134 °C
89 | C=CCOc1nc(Nc2ccc(OC)nc2)nc2c1ncn2CCCC | 147 to 149 °C
90 | CCCC12CCC(=O)C=C1c1c(cc(OCC(=O)OCC)c(Cl)c1Cl)C2OC(C)=O (stereo not drawn) | 128 to 130 °C
91 | COc1ccc2cc(C(=O)O)oc(=O)c2c1OC | 262 to 263 °C
92 | CCOc1cc(C(CS(C)(=O)=O)N2C(=O)c3cccc(NS(C)(=O)=O)c3C2=O)ccc1OC (stereo not drawn) | 191 to 193 °C
93 | O=C1CC2(CCCC2)CC(=O)N1CCCCN1CCN(C(c2ccc(F)cc2)c2ccc(F)cc2)CC1 | 165 to 169 °C
94 | C#CCOc1cc(Oc2ccc(Cl)cc2Cl)ncn1 | 107 °C
95 | CCCc1c(OCCCCCCCCCCC(=O)O)ccc(C(C)=O)c1O | 57 to 58 °C
96 | CCOc1ccc([N+](=O)[O-])nc1C | 82 to 84 °C
97 | CCCCCC(CC(=O)Nc1cc(C(N)=O)ccc1C(C)(C)C)c1ccc(C(O)CCC)cc1OC (stereo not drawn) | 153 to 155 °C
98 | CCc1nn(C2CCCC2)c2c1CCNC2=O | 152 to 153 °C
